From patent EP0698347B1, “Food composition containing reuterin” (BIOGAIA BIOLOGICS AB, priority 1987, dated 1988)

Legend:
[1] = Antimicrobial activity of pure commercial preparations; format: cell-based; conditions: concentrations as high as 0.125M
From the text: Reuterin Is a Product of Glycerol Fermentation. Reuterin is a new product associated with the same type of heterolactic fermentation of glycerol that occurs in other Lactobacillus species. Reuterin can be isolated and identified as a product of glycerol fermentation by L. reuteri using HPLC.

E. coli [2] = assay: Co-culture of E. coli with and without L. reuteri 1063 on various substrates (Table 1); format: cell-based; design: % Inhibition: concentration or dose not given beside the values; conditions: for E. coli (CFU/ml) after 6 hours: substrate 20 mM (C6, C5) or 40 mM (C3), inoculum 5 x 10^6 CFU per ml E. coli; for % Inhibition: E. coli with versus without L. reuteri 1063 on the substrate, 6 hours
Procedure: (§1) Conditions under which reuterin is produced have been determined. Reuterin is not produced under aerobic conditions (atmospheric oxygen concentration) but under reduced oxygen tension. It is produced when L. reuteri is cultured anaerobically (or semi-anaerobically in still culture) in the MIC assay medium described above containing 20-500 mM glycerol or glyceraldehyde in place of glucose as the major carbon and energy source. […] Twenty other substances, including hexoses, hexitols, pentoses, pentitols, disaccharides and a variety of phosphorylated and non-phosphorylated C3-substances, were tested for their ability to support reuterin production. […] The medium, containing a substrate at 20 mM (C6 and C5 substrates) or 40 mM (C3 substrates) concentrations, was inoculated with 5 x 10^6 colony-forming units (CFU) per ml E. coli with and without L. reuteri. Only glycerol and glyceraldehyde yielded reuterin. Also, réuterin production from glycerol is inhibited when glucose or another growth substrate is included in the production medium. The results shown in Table 2 indicate the percent inhibition in viable count of a 6.7 x 10^7 CFU per ml E. coli inoculum by supernatant fractions of L. reuteri grown on various indicated substrates at 40 mM concentrations.

E. coli [3] = assay: Inhibition of E. coli by supernatant fractions of L. reuteri grown on various substrates (Table 2); format: cell-based; conditions: for % Inhibition: percent inhibition in viable count of 6.7 x 10^7 CFU per ml E. coli inoculum by supernatant fraction, substrate 40 mM; for Growth of E. coli presence of centrifuged culture medium CFU/ml after 6 hours: supernatant fraction of L. reuteri grown on the substrate at 40 mM, inoculum 6.7 x 10^7 CFU per ml E. coli
Procedure: as §1

phage 8014-B2 = assay: Reuterin added to phage-infected bacterial cultures: virus PFUs versus host CFUs (Figure 13); format: cell-based, Lactobacillus plantarum; conditions: reuterin amounts at or greater than 25 units; four hours
Procedure: (§2) Antiviral Activity. Reuterin is also effective in preventing virus replication. […] It appears from preliminary results with ^14C-labeled glycerol that 4 ug of reuterin in 0.5 ml solution is about the equivalent of 1 unit of reuterin. After four hours, the number of colony-forming units (CFUs) of the host cell and the number of plaque-forming units (PFUs) of the viruses were assayed using standard microbiological techniques. With no reuterin added, the number of microbial cells had increased about 100-fold in the four-hour period. With E. coli, addition of 10 units of reuterin caused an approximate 100-fold decrease in the number of cells and more than a 1000-fold decrease in the number of PFUs of the lambda phage as compared to the reuterin-free control culture after incubation for four hours.

L. reuteri = assay: Sensitivity of L. reuteri itself to reuterin; format: cell-based
Procedure: (§3) Antimicrobial Activity. Reuterin is a broad-spectrum antimicrobial agent. Reuterin functions as a bacteriocide. […] The indicated concentrations (CFU per ml) of E. coli (solid lines) and L. reuteri 1063 (dashed lines) were inoculated (zero time) into the glycerol casein hydrolysate medium described above (o), the same medium minus citrate (•) and the same medium minus glycerol (X). The co-cultures were incubated semi-anaerobically (still cultures) at 37 degrees C with samples removed at the indicated intervals to determine the numbers (CFU per ml) of E. coli and L. reuteri present. […] All Gram-negative bacterial genera tested thus far (Escherichia, Shigella, Salmonella, Proteus and Pseudomonas) and all Gram positive genera tested (Staphylococcus, Streptococcus, Clostridium, Bacillus, Leuconostoc and Lactobacillus) are sensitive to reuterin. Somewhat higher concentrations of reuterin are required, however, to kill representatives of the latter three genera. A lower eucaryote, the yeast Saccharomyces cerevisiae, is also killed by reuterin. Also shown in this table is the ability of various species tested to stimulate reuterin production by the heterologous procedure.

ground beef microflora = assay: Food preservation: ground beef microflora (Figure 14); conditions: 50 and 100 units per g; stored at 4 degrees C; through the 6-day test period
Procedure: Reuterin is an effective food preservative. Ground beef purchased from a local supermarket was divided into 4 portions. One portion was untreated, the others were treated with 10, 50 and 100 units of reuterin per gram of the meat. All samples were stored at 4 degrees C with samples taken at indicated days for bacteriological analysis.
Beef samples were removed and diluted 1:10 (1 g beef: 9 ml sterile H2O). Subsequent decimal dilutions were made as needed and samples were plated onto Difco Nutrient Agar. These samples were incubated at 27°C for 24 hours and counted as colony forming units per gram ground beef (CFU/g). […] With the higher levels of reuterin (50 and 100 units per g) the indigenous population of bacteria was reduced and remained greater than 4 log units lower than the control sample through the 6-day test period.

Tryoanosoma cruzi = assay: In vitro growth of the protozoan parasite; format: cell-based; conditions: final concentration of approximately 20 MIC units ml^-1
E. coli [4] = assay: Bacteriocidal activity in E. coli / L. reuteri 1063 co-culture in glycerol medium (Figure 5); format: cell-based; conditions: glycerol present; co-culture with L. reuteri 1063, still culture, 37 degrees C; few hours after first 3-4 hours
Procedure: as §3

Saccharomyces cerevisiae = assay: Sensitivity to reuterin (Table 6); format: cell-based
Procedure: as §3

Pediococcus cerevisiae = assay: Sensitivity to reuterin (Table 6); format: cell-based
Procedure: as §3

Clostridium sporogenes = assay: Sensitivity to reuterin (Table 6); format: cell-based
Procedure: as §3

Bacillus megaterium = assay: Sensitivity to reuterin (Table 6); format: cell-based
Procedure: as §3

[5] = system: Leuconostoc mesenteroides; assay: Sensitivity to reuterin (Table 6); format: cell-based
Procedure: as §3

E. coli K12 [6] = assay: Minimum Inhibitory Concentration (MIC) procedure; format: cell-based; conditions: chemically synthesized as described by Hall, compared with biologically synthesized reuterin
Procedure: Reuterin. When Lactobacillus reuteri cells capable of producing reuterin are placed under certain favorable conditions, reuterin is produced. A number of assays have been developed to detect and quantitate reuterin. A standard Minimum Inhibitory Concentration (MIC) procedure was adopted to detect reuterin and to elucidate factors affecting its production. E. coli K12 is used as the susceptible test microorganism and the assay is carried-out as follows. Overnight cultures of E. coli are harvested, washed twice with sterile 0.05 sodium phosphate buffer (pH 7.5), suspended in this buffer and adjusted to 60 percent transmission (A 420 nm) using a Spectronic 70 instrument. This suspension is diluted 1:100 and 0.1 ml aliquots are used to inoculate 1.0 ml of the MIC assay medium which contains (g/L): vitamin-free casein hydrolysate, 3; ammonium citrate, 1.9; citric acid, 0.63; KH2PO4, 12.6; MgSO4 (hepta-hydrate), 0.2; pH adjusted to 7.0 and 20 mM glucose added after sterilization. […] Relative reuterin concentrations (units reuterin) are then calculated as the reciprocal of the sample dilution preceding the dilution allowing visible growth of the indicator cells. Another assay relating MIC values to reuterin peak heights as determined by HPLC analyses (described below) has also been developed.

Escherichia coli = assay: Reuterin added to phage-infected bacterial cultures: host CFUs (Figure 13); format: cell-based; conditions: 10 units of reuterin; four hours; compared to the reuterin-free control culture
Procedure: as §2

Lambda phage = assay: Reuterin added to phage-infected bacterial cultures: virus PFUs (Figure 13); format: cell-based; conditions: 10 units of reuterin; four hours; compared to the reuterin-free control culture
Procedure: as §2

E. coli K12 [7] = assay: Food preservation: E. coli-inoculated ground beef (Figure 15); conditions: 75 units (U) of reuterin per gram of beef; 4°C; 9-day incubation period
Procedure: Ground beef purchased from a local supermarket was thoroughly inoculated and mixed with approximately 10^5CFU/ml of E. coli K12 cells. After mixing, the material was divided into 2 portions. One portion was an untreated control (no reuterin), the other portion received 75 units (U) of reuterin per gram of beef. Samples were stored at 4°C with portions removed at indicated times for bacteriological analysis. In this experiment the determination of viable cells (CFU/g beef) was conducted as described for Figure 14 except that Difco McConkey's Agar (relatively specific for coliform-like bacteria) was used.

[8] = Characterizations of reuterin in crude preparations; format: physicochemical

Molecule	E. coli (CFU/ml) after 6 hours (E. coli [2]; Addition of L. reuteri 1063: +)	E. coli (CFU/ml) after 6 hours (E. coli [2]; Addition of L. reuteri 1063: -)	% Inhibition (E. coli [2]) [%]	% Inhibition (E. coli [3]) [%]	Growth of E. coli presence of centrifuged culture medium CFU/ml after 6 hours (E. coli [3])	further results
OCCCO [1,3-propanediol]						antimicrobial activity [1]: essentially devoid of antimicrobial activity
OC[C@@H](O)C(O)[C@H](O)CO [Arabitol]	2.9x10^6 CFU/ml	2.7x10^6 CFU/ml	0			
O=C(CO)COP(=O)(O)O [Dihydroxyacetone-P]	4.1x10^6 CFU/ml	3.4x10^6 CFU/ml	0	0	3.7x10^9 CFU/ml	
O=C(CO)[C@@H](O)[C@H](O)[C@H](O)CO [Fructose]	3.0x10^8 CFU/ml	2.1x10^8 CFU/ml	0			
O=C(O)[C@H](O)[C@@H](O)[C@H](O)[C@H](O)CO [Gluconate]	3.2x10^8 CFU/ml	3.5x10^8 CFU/ml	0			
O=CC(O)CO (stereo not shown) [Glyceraldehyde]	3.2x10^4 CFU/ml	2.8x10^6 CFU/ml	99	98.9	6.1x10^5 CFU/ml	
OC[C@@H](O)[C@@H](O)[C@H](O)[C@H](O)CO [Mannitol]	2.7x10^8 CFU/ml	2.3x10^8 CFU/ml	0			
C=C(OP(=O)(O)O)C(=O)O [Phosphoenolpyruvate]				0	3.7x10^9 CFU/ml	
CC(=O)C(=O)O [Pyruvate]				0	4.1x10^9 CFU/ml	
OC[C@@H](O)[C@@H](O)[C@@H](O)CO [Ribitol]	4.9x10^6 CFU/ml	5.7x10^6 CFU/ml	0			
OC[C@@H](O)[C@@H](O)[C@H](O)[C@@H](O)CO [Sorbitol]	1.9x10^8 CFU/ml	2.1x10^8 CFU/ml	0			
O=C[C@H](O)[C@@H](O)[C@H](O)CO [Xylose]	6.9x10^7 CFU/ml	6.7x10^7 CFU/ml	0			
OCCC1OCCC(O)O1 (stereo not shown) [reuterin, 4-hydroxy-2-2'-hydroxyethyl-1:3-dioxan]						Lactobacillus CFU and PFU decreases due to reuterin (phage 8014-B2): even greater declines in the PFUs than in the CFUs; concentrations at which L. reuteri itself is sensitive to reuterin (L. reuteri): ≥ 32 MIC units; indigenous population of bacteria lower than the control sample (ground beef microflora): greater than 4 log units; in vitro growth of the protozoan parasite (Tryoanosoma cruzi): inhibits in vitro growth; log decrease in viable E. coli cells (E. coli [4]): 7-8 log; Sensitivity to reuterin (Saccharomyces cerevisiae): S; Sensitivity to reuterin (Pediococcus cerevisiae): S; Sensitivity to reuterin (Clostridium sporogenes): S; Sensitivity to reuterin (Bacillus megaterium): S; Sensitivity to reuterin [5]: S; MIC value (E. coli K12 [6]): idential MIC value as the biologically synthesized reuterin; decrease in the number of cells (Escherichia coli): about 100 fold; decrease in the number of PFUs of the lambda phage (Lambda phage): > 1000 fold; viable cells (CFU/g beef) on McConkey's Agar (E. coli K12 [7]): reduced the initial population of bacteria and kept these numbers low; stability to heat ([8]; 100 degrees C for 10 minutes, particularly at pH values of 9.0 or higher): labile to heat; resistance to nucleases and proteases ([8]; crude preparations): resistant to nucleases and proteases; solubility in water ([8]; crude preparations): highly soluble in water
O=P(O)(O)OC(CO)CO [β-Glycerol-P]	6.5x10^6 CFU/ml	5.1x10^6 CFU/ml	0	0	3.2x10^9 CFU/ml	
O=C(O)CCO [β-hydroxypropionic acid]						antimicrobial activity [1]: essentially devoid of antimicrobial activity
Phosphoglycerate				0	3.3x10^9 CFU/ml	
